# According to patent US10766914B2, “DNA alkylating agents” (OBI PHARMA, INC., priority 2015, dated 2020):
# Test system: H460 cells
# Assay: Proliferation assay in H460 cells (2 hr exposure, AlamarBlue)
# Type: cell-based, human
# Conditions: 2 hrs exposure, wash, 70 hrs growth, read-out: IC 50 in proliferation assay in H460 cells
# Procedure: In vitro proliferation data on the H460 […] human tumor cell line is reported above in the compound table.
# Specifically, exponentially growing cells were seeded at a density of 4×10^3 cells per well in a 96 well plate and incubated at 37° C. in 5% CO2, 95% air and 100% relative humidity for 24 hours prior to addition of test compounds. Compounds were solubilized in 100% DMSO at 200 times the desired final test concentration. At the time of drug addition, compounds were further diluted to 4 times the desired final concentration with complete medium. Aliquots of 50 μl of compound at specified concentrations were added to microtiter wells already containing 150 μl of medium, resulting in the final drug concentration reported. After drug addition, the plates were incubated for an additional 2 hours at 37° C., 5% CO2, 95% air, and 100% relative humidity, then the drug was washed off and fresh medium was added and the plates were incubated for addition 70 hrs at 37° C., 5% CO2, 95% air and 100% relative humidity. At the end of this incubation, the viable cells were quantified using the AlamarBlue assay. The drug concentration resulting in growth inhibition of 50% (IC50) was calculated using Prism software (Irvine, Calif.), and the results were listed in the table.
row,Compound,IC50 [nM]
1,CC(OP(=O)(N1CC1)N1CC1)c1ccc([N+](=O)[O-])c(Oc2cccc([N+](=O)[O-])c2)c1 (centres unmarked) [Compound 2922],3

# Same assay, conditions: Homo sapiens, NCI-H460, 2 hrs exposure, wash, 70 hrs growth, read-out: IC 50 in proliferation assay in H460 cells
row,Compound,IC50 [nM]
1,CC(OP(=O)(N1CC1)N1CC1)c1ccc([N+](=O)[O-])c(Oc2ccc(C#N)cc2)c1 (centres unmarked) [Compound 2872],30
2,Cc1nc2ccc(Oc3cc(C(C)OP(=O)(N4CC4)N4CC4)ccc3[N+](=O)[O-])cc2s1 (centres unmarked) [Compound 2930],2
3,CC(OP(=O)(N1CC1)N1CC1)c1ccc([N+](=O)[O-])c(Oc2cccc(-c3ccccc3)c2)c1 (centres unmarked) [Compound 2991],6
4,O=C(c1cccc(Oc2cc(COP(=O)(N3CC3)N3CC3)ccc2[N+](=O)[O-])c1)N1CCOCC1 [Compound 2973],20
5,COc1ccc(Oc2cc(COP(=O)(N3CC3)N3CC3)ccc2[N+](=O)[O-])cc1 [Compound 2895],4
6,CC(OP(=O)(N1CC1)N1CC1)c1ccc([N+](=O)[O-])c(Oc2ccc(-c3ccc(Cl)cc3)cc2)c1 (centres unmarked) [Compound 3041],50
7,CC(OP(=O)(N1CC1)N1CC1)c1ccc([N+](=O)[O-])c(Oc2cccc(C(=O)N3CCCCC3)c2)c1 (centres unmarked) [Compound 2982],4
8,Cc1nc2cc(Oc3cc(COP(=O)(N4CC4)N4CC4)ccc3[N+](=O)[O-])ccc2s1 [Compound 2929],30
9,O=[N+]([O-])c1ccc(COP(=O)(N2CC2)N2CC2)cc1Oc1ccc2ccccc2c1 [Compound 2968],4
10,CC(OP(=O)(N1CC1)N1CC1)c1ccc([N+](=O)[O-])c(Oc2ccc(-c3ccc(F)cc3)cc2)c1 (centres unmarked) [Compound 3042],5
11,CC(OP(=O)(N1CC1)N1CC1)c1ccc([N+](=O)[O-])c(Oc2ccc3cccnc3c2)c1 (centres unmarked) [Compound 2957],40
12,Cc1ccc(Oc2cc(C(C)OP(=O)(N3CC3)N3CC3)ccc2[N+](=O)[O-])cc1 (centres unmarked) [Compound 3030],20
13,CC(OP(=O)(N1CC1)N1CC1)c1ccc([N+](=O)[O-])c(Oc2ccccc2F)c1 (centres unmarked) [Compound 2865],30
14,CC(OP(=O)(N1CC1)N1CC1)c1ccc([N+](=O)[O-])c(O/N=C(\C#N)c2ccccc2)c1 (centres unmarked) [Compound 2947],200
15,O=[N+]([O-])c1ccc(COP(=O)(N2CC2)N2CC2)cc1Oc1cnc2ccccc2c1 [Compound 2969],2
16,CCN(CC)C(=O)c1cccc(Oc2cc(C(C)OP(=O)(N3CC3)N3CC3)ccc2[N+](=O)[O-])c1 (centres unmarked) [Compound 2985],4
17,CC(OP(=O)(N1CC1)N1CC1)c1ccc([N+](=O)[O-])c(Oc2ccc(NS(=O)(=O)C(F)(F)F)cc2)c1 (centres unmarked) [Compound 2913],70
18,CN(C)C(=O)c1ccc(Oc2cc(COP(=O)(N3CC3)N3CC3)ccc2[N+](=O)[O-])cc1 [Compound 2941],4
19,CC(OP(=O)(N1CC1)N1CC1)c1ccc([N+](=O)[O-])c(Oc2cccc(N(C)C)c2)c1 (centres unmarked) [Compound 2855],30
20,CC(OP(=O)(N1CC1)N1CC1)c1ccc([N+](=O)[O-])c(Oc2ccc(C(=O)N(C)C)cc2)c1 (centres unmarked) [Compound 2908],7
21,Cn1cnc2cc(Oc3cc(COP(=O)(N4CC4)N4CC4)ccc3[N+](=O)[O-])ccc21 [Compound 2921],7
22,CC(OP(=O)(N1CC1)N1CC1)c1ccc([N+](=O)[O-])c(Oc2nccs2)c1 (centres unmarked) [Compound 2944],> 5000
23,Cc1nc2cc(Oc3cc(C(C)OP(=O)(N4CC4)N4CC4)ccc3[N+](=O)[O-])ccc2s1 (centres unmarked) [Compound 2928],30
24,Nc1ccc(Oc2cc(COP(=O)(N3CC3)N3CC3)ccc2[N+](=O)[O-])cc1 [Compound 2896],100
25,CC(OP(=O)(N1CC1)N1CC1)c1ccc([N+](=O)[O-])c(Oc2cccc(C(N)=O)c2)c1 (centres unmarked) [Compound 2924],100
26,CC(OP(=O)(N1CC1)N1CC1)c1ccc([N+](=O)[O-])c(Oc2ccc(-c3ncco3)cc2)c1 (centres unmarked) [Compound 2904],10
27,CCOC(=O)c1ccc(Oc2cc(COP(=O)(N3CC3)N3CC3)ccc2[N+](=O)[O-])cc1 [Compound 2876],3
28,O=[N+]([O-])c1ccc(Oc2cc(COP(=O)(N3CC3)N3CC3)ccc2[N+](=O)[O-])cc1 [Compound 2934],3
